One data set can be described thus: Caco-2 permeation assay. Format: in vitro ADME. The note with it: human, Caco-2, pH 7.2, test compound 2 μM; for efflux ratio at 2 h, 2 μM: read-out: Efflux ratio (Papp B-A/Papp A-B); for Papp A→B at 2 h, 2 μM: read-out: Papp A-B (Mari); for Papp B→A at 2 h, 2 μM: read-out: Papp B-A (Mari). On the procedure: 5. Caco-2 Permeation Assay:
Caco-2 cells (purchased from DSMZ Braunschweig, Germany) were seeded at a density of 4.5×10^4 cells per well on 24 well insert plates, 0.4 µm pore size, and grown for 15 days in DMEM medium supplemented with 10% fetal bovine serum, 1% GlutaMAX (100×, GIBCO), 100 U/mL penicillin, 100 μg/mL streptomycin (GIBCO) and 1% non essential amino acids (100×). Cells were maintained at 37° C. in a humified 5% CO2 atmosphere. Medium was changed every 2-3 day. Before running the permeation assay, the culture medium was replaced by a FCS-free hepes-carbonate transport buffer (pH 7.2). For assessment of monolayer integrity the transepithelial electrical resistance (TEER) was measured. Test compounds were predissolved in DMSO and added either to the apical or basolateral compartment in final concentration of 2 μM in transport buffer. Before and after 2 h incubation at 37° C. samples were taken from both compartments. Analysis of compound content was done after precipitation with methanol by LC/MS/MS analysis. Permeability (Papp) was calculated in the apical to basolateral (A→B) and basolateral to apical (B→A) directions. The apparent permeability was calculated using following equation: Papp=(Vr/Po)(1/S)(P2/t) Where Vr is the volume of medium in the receiver chamber, Po is the measured peak area or height of the test drug in the donor chamber at t=o, S the surface area of the monolayer, P2 is the measured peak area of the test drug in the acceptor chamber after 2 h of incubation, and t is the incubation time. The efflux ratio basolateral (B) to apical (A) was calculated by dividing the Papp B-A by the Papp A-B. In addition the compound recovery was calculated. 6. Investigation of In Vitro Metabolic Stability in Rat Hepatocytes

The nature of data set [1]: In vivo pharmacokinetics in rats. As to conditions: male, Wistar, rat, plasma, iv; i.v. bolus dosing to rats; read-out: t1/2: terminal half-life (converted). As to the method:
7. In Vivo Pharmacokinetics in Rats
For in vivo pharmacokinetic experiments test compounds were administered to male Wistar rats intravenously at doses of 0.3 to 1 mg/kg formulated as solutions using either rat plasma or solubilizers such as PEG400 in well-tolerated amounts.
For pharmacokinetics after intravenous administration test compounds were given as i.v. bolus and blood samples were taken at 2 min, 8 min, 15 min, 30 min, 45 min, 1 h, 2 h, 4 h, 6 h, 8 h and 24 h after dosing. […] Blood was collected into Lithium-Heparin tubes (Monovetten®, Sarstedt) and centrifuged for 15 min at 3000 rpm. An aliquot of 100 μL from the supernatant (plasma) was taken and precipitated by addition of 400 μL ice cold acetonitrile and frozen at −20° C. over night. Samples were subsequently thawed and centrifuged at 3000 rpm, 4° C. for 20 minutes. Aliquots of the supernatants were taken for analytical testing using an Agilent 1200 HPLC-system with LCMS/MS detection. PK parameters were calculated by non-compartmental analysis using a PK calculation software. […]

Data set [2] is described as follows: High throughput determination of aqueous drug solubility from DMSO solution (Method 4a). The data set is classed as physicochemical. The note with it: phosphate buffer, kinetic from dmso stock, pH 6.5, Method 4a. An excerpt: 4. Equilibrium Shake Flask Solubility Assay:
4a) High Throughput Determination of Aqueous Drug Solubility (100 Mmolar in DMSO)
The high throughput screening method to determine aqueous drug solubility is based on: Thomas Onofrey and Greg Kazan, Performance and correlation of a 96-well high throughput screening method to determine aqueous drug solubility, http://wwv.millipore.com/publications.nsf/a73664f9f981 af8c852569b9005b4eee/e565516fb76e7435852 56da30052db77/$FILE/AN1731EN00.pdf
The assay was run in a 96-well plate format. Each well was filled with an individual compound.
All pipetting steps were performed using a robot platform.
100 μl of a 10 mmolar solution of drug in DMSO were concentrated by vacuum centrifugation and resolved in 10 μl DMSO. 990 μl phosphate buffer pH 6.5 were added. The content of DMSO amounts to 1%. The multititer plate was put on a shaker and mixed for 24 hrs at room temperature. 150 μl of the suspension were transferred to a filtration plate. After filtration using a vacuum manifold the filtrate was diluted 1:400 and 1:8000. A second microtiter plate with 20 μl of a 10 mM solution of drug in DMSO served for calibration. Two concentrations (0.005 μM and 0.0025 μM) were prepared by dilution in DMSO/water 1:1 and used for calibration. Filtrate and calibration plates were quantified by HPLC-MS/MS.
The areas of sample- and calibration injections were determined by using mass spectromety software (AB SCIEX: Discovery Quant 2.1.3. and Analyst 1.6.1). The calculation of the solubility value (in mg/l) was executed by an inhouse developed Excel macro.

Converted amounts (≈) assume the structure as drawn.

For `CS(=N)(=N)Cc1cc2nc(c1)OCCCOc1cc(F)ccc1-c1cc(ncc1F)N2` [Example 1, 15,19-difluoro-8-[(S-methylsulfonodiimidoyl)methyl]-3,4-dihydro-2H,11H-10,6-(azeno)-12,16-(metheno)-1,5,11,13-benzodioxadiazacyclooctadecine], in the data set “Caco-2 permeation assay”, the efflux ratio at 2 h, 2 μM turned out to be 1.4; the apparent permeability from apical to basolateral (Papp A→B) at 2 h, 2 μM was determined as 6.24 ×10⁻⁶ cm/s; the Papp B→A at 2 h, 2 μM was 8.92 ×10⁻⁶ cm/s. Besides, the half-life in data set [1] is 3.4 h.
As to `CS(=N)(Cc1cc2nc(c1)OCCCOc1cc(F)ccc1-c1cc(ncc1F)N2)=NCCCO` (racemic) [Example 2, (rac)-3-(2-{[15,19-difluoro-3,4-dihydro-2H,11H-10,6-(azeno)-12,16-(metheno)-1,5,11,13-benzodioxadiazacyclooctadecin-8-yl]methyl}-2-methyl-2λ^6-diazathia-1,2-dien-1-yl)propan-1-ol], in the data set “Caco-2 permeation assay”, the efflux ratio at 2 h, 2 μM amounted to 23.2; the Papp A→B at 2 h, 2 μM is 0.99 ×10⁻⁶ cm/s; the apparent permeability from basolateral to apical (Papp B→A) at 2 h, 2 μM is 22.9 ×10⁻⁶ cm/s.
In data set [2], `CS(=N)(Cc1cc2cc(c1)OCCCCOc1cc(F)ccc1-c1nc(ncc1F)N2)=NC1CC1` (racemic) [Example 9, (rac)-9-[(N-cyclopropyl-S-methylsulfonodiimidoyl)methyl]-16,20-difluoro-2,3,4,5-tetrahydro-12H-13,17-(azeno)-11,7-(metheno)-1,6,12,14-benzodioxadiazacyclononadecine] came in with a solubility (thermodynamic) at 24 h of 70 µg/mL (≈ 140 µM).
Turning to `CS(=N)(=N)Cc1cc2cc(c1)OCCCCOc1cc(F)ccc1-c1nc(ncc1F)N2` [Example 5, 16,20-difluoro-9-[(S-methylsulfonodiimidoyl)methyl]-2,3,4,5-tetrahydro-12H-13,17-(azeno)-11,7-(metheno)-1,6,12,14-benzodioxadiazacyclononadecine], in “Caco-2 permeation assay”, the efflux ratio at 2 h, 2 μM came to 5; the Papp A→B at 2 h, 2 μM came out at 4.82 ×10⁻⁶ cm/s; the Papp B→A at 2 h, 2 μM amounted to 24.1 ×10⁻⁶ cm/s. Further, the half-life in data set [1] is 6.9 h. Moreover, the solubility (thermodynamic) at 24 h in data set [2] came to 78 µg/mL (≈ 170 µM).
Regarding `CS(=N)(=N)Cc1cc2cc(c1)OCCCCOc1c(ccc(F)c1F)-c1nc(ncc1F)N2` [Example 6, 16,20,21-trifluoro-9-[(S-methylsulfonodiimidoyl)methyl]-2,3,4,5-tetrahydro-12H-13,17-(azeno)-11,7-(metheno)-1,6,12,14-benzodioxadiazacyclononadecine], in the data set “Caco-2 permeation assay”, the efflux ratio at 2 h, 2 μM is 4.8; the Papp A→B at 2 h, 2 μM was 4.64 ×10⁻⁶ cm/s; the basolateral-to-apical permeability (Papp B→A) at 2 h, 2 μM is 22.3 ×10⁻⁶ cm/s. The thermodynamic solubility at 24 h in data set [2] amounted to 14 µg/mL (≈ 29.3 µM).

The record behind these values is US10717749B2, “Macrocyclic sulfondiimine compounds” (BAYER PHARMA AKTIENGESELLSCHAFT, priority 2015, dated 2020).
